These results are taken from paper PMC4412765 (Chemical biology & drug design, 2014).

Where two headings read alike, the source gives them in different places.

Assay [1] deals with M. smegmatis. The assay is described as follows: Activity against the M. tuberculosis model M. smegmatis. Format: cell-based.
Assay [2] concerns the target cis-DPPS (Rv2361c) (Mycobacterium tuberculosis, UniProt P9WFF7).
For assay [3], the target named is Rv3378c (Mycobacterium tuberculosis, UniProt P9WJ61).
Assay [4] relates to UPPS. To be noted: cited from earlier work.
For assay [5], the system named is S. aureus. Conditions: cited from earlier work.

cis-DPPS (Rv2361c), sequence (P9WFF7 whole entry): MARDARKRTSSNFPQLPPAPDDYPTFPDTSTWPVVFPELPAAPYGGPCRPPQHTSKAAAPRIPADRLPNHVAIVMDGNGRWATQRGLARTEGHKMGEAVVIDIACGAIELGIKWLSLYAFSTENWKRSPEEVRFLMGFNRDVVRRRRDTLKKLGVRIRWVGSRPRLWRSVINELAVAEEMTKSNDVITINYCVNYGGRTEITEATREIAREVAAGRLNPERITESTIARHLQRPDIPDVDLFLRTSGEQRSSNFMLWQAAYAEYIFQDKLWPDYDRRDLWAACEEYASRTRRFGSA
Rv3378c, sequence (P9WJ61 whole entry): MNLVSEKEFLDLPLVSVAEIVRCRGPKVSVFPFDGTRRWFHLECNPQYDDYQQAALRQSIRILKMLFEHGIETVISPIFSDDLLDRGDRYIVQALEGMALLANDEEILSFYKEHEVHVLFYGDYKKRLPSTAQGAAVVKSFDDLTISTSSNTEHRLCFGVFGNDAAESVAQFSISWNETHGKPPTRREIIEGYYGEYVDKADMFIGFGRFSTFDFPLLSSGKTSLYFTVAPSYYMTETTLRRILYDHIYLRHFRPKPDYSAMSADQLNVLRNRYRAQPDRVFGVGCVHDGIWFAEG

As for `O=P(O)(O)C(O)(Cc1cccc(-c2cccc3c2oc2ccccc23)c1)P(=O)(O)O` [BPH-629], in assay [1], the “activity against M. smegmatis” value was “inactive”. Moreover, the 50% inhibitory concentration (IC50) (in general, the point on the concentration scale where inhibition reaches its midpoint) in assay [2] (read-out: IC50 against DPPS, cis-FPP as substrate) stood at 610 nM.
On to `Cl.Cl.O=C(Nc1cccc(C2=NCCN2)c1)c1ccc(-c2ccc(C(=O)Nc3cccc(C4=NCCN4)c3)cc2)cc1` [BPH-1358], for which the “activity against Rv3378c” value in assay [3] is “inactive”. In addition, the UPPS inhibition entry in assay [4] is “potent UPPS inhibitor”.
Consider `C(=C\c1cc2ccc(C3=NCCN3)cc2[nH]1)/c1cc2ccc(C3=NCCN3)cc2[nH]1` [BPH-1417], for which the “in vivo activity against S. aureus” value in assay [5] is given as “potent”. The half-inhibitory concentration (IC50) in assay [2] (read-out: IC50 against DPPS, depending on substrate) was 500 to 20000 nM; in assay [2] (read-out: IC50 against cis-DPPS, substrate not stated) it was 1300 nM.
